In patent US10035800B2 (AbbVie Inc., priority 2013, dated 2018):

What was measured:
[1] = biological target: T1, BRD4 (BDI_K57-E168) (Homo sapiens, UniProt O60885); assay: TR-FRET bromodomain binding assay, first bromodomain of BRD4; conditions: 100 nM probe
T1 construct: BD1: amino acids K57-E168; made in house
Experimental: (§1) Bromodomain Domain Binding Assay
(§2) A time-resolved fluorescence resonance energy transfer (TR-FRET) assay was used to determine the affinities of compounds of the Examples listed in Table 1 for each bromodomain of BRD4. His-tagged first (BD1: amino acids K57-E168) and second (BD2: amino acids […]) bromodomains of BRD4 were expressed and purified. An Alexa647-labeled BET-inhibitor was used as the fluorescent probe in the assay.
(§3) Compound dilution series were prepared in DMSO via an approximately 3-fold serial dilution from one of the following: […]
(§4) Assay method E: 0.47 mM to 7.8 nM […]
(§5) Assay method G: 0.047 mM to 0.78 nM
(§6) or 5-fold serial dilution from one of the following: […]
(§7) Assay method B: 2.5 mM-797 nM […]
(§8) For Assay methods B, E, and G: Compound dilutions were added directly into white, low-volume assay plates (Perkin Elmer Proxiplate 384 Plus#6008280) using a Labcyte Echo in conjunction with Labcyte Access and Thermo Multidrop CombinL robotics. Compounds were then suspended in eight microliters (μL) of assay buffer (20 mM Sodium Phosphate, pH 6.0, 50 mM NaCl, 1 mM Ethylenediaminetetraacetic acid disodium salt dihydrate, 0.01% Triton X-100, 1 mM DL-Dithiothreitol) containing His-tagged bromodomain, Europium-conjugated anti-His antibody (Invitrogen PV5596) and Alexa-647-conjugated probe.
(§9) The final concentration of 1× assay mixture for assay methods A, B, C, D, E, F, and G contains 2% DMSO, 8 nM His-tagged bromodomain, 1 nM Europium-conjugated anti-His-tag antibody and 100 nM or 30 nM probe (for BDI or BDII, respectively) and compound concentration in the range of: 50 μM-16 nM for method A, 49.02 μM-15.63 nM for method B, 25 μM-423 pM for method C, 10 μM-169 pM for method D, 9.19 μM-150 pM for method E, 5 μM-85 pM for method F, and 0.92 μM-15 pM for method G.
(§10) After a one-hour equilibration at room temperature, TR-FRET ratios were determined using an Envision multilabel plate reader (Ex 340, Em 495/520).
(§11) TR-FRET data were normalized to the means of 24 no-compound controls (“high”) and 8 controls containing 1 μM un-labeled probe (“low”). Percent inhibition was plotted as a function of compound concentration and the data were fit with the 4 parameter logistic equation to obtain IC50s. Inhibition constants (Ki) were calculated from the IC50s, probe Kd and probe concentration. Typical Z′ values were between 0.65 and 0.75. The minimum significant ratio was determined to evaluate assay reproducibility (Eastwood et al., (2006) J Biomol Screen, 11: 253-261). The MSR was determined to be 2.03 for BDI and 1.93 for BDII, and a moving MSR (last six run MSR overtime) for both BDI and BDII was typically <3.

[2] = biological target: T2, BRD4 (BDII_E352-M457) (Homo sapiens, UniProt O60885); assay: TR-FRET bromodomain binding assay, second bromodomain of BRD4; conditions: 30 nM probe
T2 construct: protocol; made in house
Experimental: as §1, §2, §3, §4, §5, §6, §7, §8, §9, §10, §11

[3] = TR-FRET assay protocol G (compound 0.92 μM-15 pM)
[4] = TR-FRET assay protocol E (compound 9.19 μM-150 pM)

Compound	Ki [1, 3] [nM]	Ki [2, 3] [nM]	Ki [1, 4] [nM]	Ki [2, 4] [nM]
Cn1cc2c3c(c[nH]c3c1=O)CN(c1ccc(F)cc1F)c1ncncc1-2 [Example 83, 4-(2,4-difluorophenyl)-10-methyl-3,4-dihydro-1H-1,4,5,7,10-pentaazadibenzo[cd,f]azulen-11(10H)-one]	> 238	> 408		
Cn1cc2c3c(c[nH]c3c1=O)CNc1ccc(S(C)(=O)=O)cc1-2 [Example 4, 10-methyl-7-(methylsulfonyl)-3,4-dihydro-1H-1,4,10-triazadibenzo[cd,f]azulen-11(10H)-one]			2000	3090
Cn1cc2c3c(c[nH]c3c1=O)CN(S(=O)(=O)c1ccccc1)c1ccc(CS(C)(=O)=O)cc1-2 [Example 77, 10-methyl-7-((methylsulfonyl)methyl)-4-(phenylsulfonyl)-3,4-dihydro-1H-1,4,10-triazadibenzo[cd,f]azulen-11(10H)-one]	> 238	275		
CN(C)C(NCC1c2c[nH]c3c(=O)n(C)cc(c23)-c2cc(CS(C)(=O)=O)ccc2N1c1ccc(F)cc1F)=[N+](C)C (stereo not shown) [Example 130, N-((((4-(2,4-difluorophenyl)-10-methyl-7-((methylsulfonyl)methyl)-11-oxo-3,4,10,11-tetrahydro-1H-1,4,10-triazadibenzo[cd,f]azulen-3-yl)methyl)amino)(dimethylamino)methylene)-N-methylmethanaminium]	215	14.6		
2-(3-(10-methyl-7-((methylsulfonyl)methyl)-11-oxo-10,11-dihydro-1H-1,4,10-triazadibenzo[cd,f]azulen-4(3H)-yl)pyrrolidin-1-yl)acetic acid [Example 179]	20.1	80.7		
COC(=O)CCC1c2c[nH]c3c(=O)n(C)cc(c23)-c2cc(CS(C)(=O)=O)ccc2N1c1ccc(F)cc1F [Example 268, (R)-methyl 3-(4-(2,4-difluorophenyl)-10-methyl-7-((methylsulfonyl)methyl)-11-oxo-3,4,10,11-tetrahydro-1H-1,4,10-triazadibenzo[cd,f]azulen-3-yl)propanoate]	82.8	16.4		
Cn1cc2c3c(c[nH]c3c1=O)C(C(=O)NCCCCc1ccccc1)N(c1ccc(F)cc1F)c1ccc(CS(C)(=O)=O)cc1-2 (stereo not shown) [Example 168, 4-(2,4-difluorophenyl)-10-methyl-7-((methylsulfonyl)methyl)-11-oxo-N-(4-phenylbutyl)-3,4,10,11-tetrahydro-1H-1,4,10-triazadibenzo[cd,f]azulene-3-carboxamide]	93.2	124		
Cc1ccc(S(=O)(=O)N2Cc3c[nH]c4c(=O)n(C)cc(c34)-c3cc(CS(C)(=O)=O)ccc32)cc1 [Example 74, 10-methyl-7-((methylsulfonyl)methyl)-4-tosyl-3,4-dihydro-1H-1,4,10-triazadibenzo[cd,f]azulen-11(10H)-one]	> 238	369		
CN1CCC(N2Cc3c[nH]c4c(=O)n(C)cc(c34)-c3cc(CS(C)(=O)=O)ccc32)C1 (stereo not shown) [Example 187]	5.74	50		
CN1CCC(N2Cc3c[nH]c4c(=O)n(C)cc(c34)-c3cc(CS(C)(=O)=O)ccc32)CC1 [Example 181]	3.33	17.1		
CCc1ccc(CCNC(=O)N2Cc3c[nH]c4c(=O)n(C)cc(c34)-c3cc(CS(C)(=O)=O)ccc32)cc1 [Example 63, N-(4-ethylphenethyl)-10-methyl-7-((methylsulfonyl)methyl)-11-oxo-10,11-dihydro-1H-1,4,10-triazadibenzo[cd,f]azulene-4(3H)-carboxamide]	82.2	73.6		

Other lines, results leading:

Ki [1, 3] [nM]	Ki [2, 3] [nM]	Ki [1, 4] [nM]	Ki [2, 4] [nM]	Compound
2.09	0.85			Cn1cc(-c2[nH]c3c(=O)n(C)cc4c3c2CN(c2ccccn2)c2ccc(S(C)(=O)=O)cc2-4)cn1 [Example 275, 10-methyl-2-(1-methyl-1H-pyrazol-4-yl)-7-(methylsulfonyl)-4-(pyridin-2-yl)-3,4-dihydro-1H-1,4,10-triazadibenzo[cd,f]azulen-11(10H)-one]
10.3	13.9			COCCOC(=O)N1Cc2c[nH]c3c(=O)n(C)cc(c23)-c2cc(CS(C)(=O)=O)ccc21 [Example 86, 2-methoxyethyl 10-methyl-7-((methylsulfonyl)methyl)-11-oxo-10,11-dihydro-1H-1,4,10-triazadibenzo[cd,f]azulene-4(3H)-carboxylate]
58.9	6.35			(R)—N-ethyl-7-(ethylsulfonyl)-10-methyl-11-oxo-4-(1-phenylpropyl)-3,4,10,11-tetrahydro-1H-1,4,10-triazadibenzo[cd,f]azulene-2-carboxamide [Example 272]
5.77	4.53			Cn1cc2c3c(c[nH]c3c1=O)CN(C(=O)OCCCCCl)c1ccc(CS(C)(=O)=O)cc1-2 [Example 89, 4-chlorobutyl 10-methyl-7-((methylsulfonyl)methyl)-11-oxo-10,11-dihydro-1H-1,4,10-triazadibenzo[cd,f]azulene-4(3H)-carboxylate]
3.74	5.58			Cn1cc2c3c(c[nH]c3c1=O)CN(C(=O)OCC(C)(C)C)c1ccc(CS(C)(=O)=O)cc1-2 [Example 92, neopentyl 10-methyl-7-((methylsulfonyl)methyl)-11-oxo-10,11-dihydro-1H-1,4,10-triazadibenzo[cd,f]azulene-4(3H)-carboxylate]
7.29	24.7			CCOC(=O)C1c2c[nH]c3c(=O)n(C)cc(c23)-c2cc(C)cnc2N1c1ccc(F)cc1 (stereo not shown) [Example 43, ethyl 4-(4-fluorophenyl)-7,10-dimethyl-11-oxo-3,4,10,11-tetrahydro-1H-1,4,5,10-tetraazadibenzo[cd,f]azulene-3-carboxylate]
64.7	90.6			Cn1cc2c3c(c[nH]c3c1=O)CN(/C=C(/C=C/c1ccccc1)c1ccccc1)c1c(F)cc(F)cc1-2 [Example 57, 4-((1Z,3E)-2,4-diphenylbuta-1,3-dien-1-yl)-5,7-difluoro-10-methyl-3,4-dihydro-1H-1,4,10-triazadibenzo[cd,f]azulen-11(10H)-one]
64.1	15.6			Cn1cc2c3c(c[nH]c3c1=O)CN(C(=O)c1ccccc1)c1ccc(CS(C)(=O)=O)cc1-2 [Example 109, 4-benzoyl-10-methyl-7-((methylsulfonyl)methyl)-3,4-dihydro-1H-1,4,10-triazadibenzo[cd,f]azulen-11(10H)-one]
3.64	4.62			CC(C1CCOCC1)N1Cc2c[nH]c3c(=O)n(C)cc(c23)-c2cc(CS(C)(=O)=O)ccc21 (racemic) [Example 188, 10-methyl-7-((methylsulfonyl)methyl)-4-(1-(tetrahydro-2H-pyran-4-yl)ethyl)-3,4-dihydro-1H-1,4,10-triazadibenzo[cd,f]azulen-11(10H)-one]
53.2	15.2			Cn1cc2c3c(c[nH]c3c1=O)CN(C(=O)c1ccc(F)cc1F)c1ccc(CS(C)(=O)=O)cc1-2 [Example 112, 4-(2,4-difluorobenzoyl)-10-methyl-7-((methylsulfonyl)methyl)-3,4-dihydro-1H-1,4,10-triazadibenzo[cd,f]azulen-11(10H)-one]
3.46	1.76			CCCCCOC(=O)N1Cc2c[nH]c3c(=O)n(C)cc(c23)-c2cc(CS(C)(=O)=O)ccc21 [Example 88, pentyl 10-methyl-7-((methylsulfonyl)methyl)-11-oxo-10,11-dihydro-1H-1,4,10-triazadibenzo[cd,f]azulene-4(3H)-carboxylate]
2.83	1.56			Cn1cc(-c2[nH]c3c(=O)n(C)cc4c3c2CN(c2ccccc2)c2ccc(S(C)(=O)=O)cc2-4)cn1 [Example 274, 10-methyl-2-(1-methyl-1H-pyrazol-4-yl)-7-(methylsulfonyl)-4-phenyl-3,4-dihydro-1H-1,4,10-triazadibenzo[cd,f]azulen-11(10H)-one]
